{"source": "ChEMBL document CHEMBL5113410", "about": "“Novel flavonoid hybrids as potent antiviral agents against hepatitis A: Design, synthesis and biological evaluation” (Eur J Med Chem, 2022)", "key": {"Hepatovirus A [1]": {"tested_on": "Hepatovirus A", "assay": "Antiviral activity against hepatitis A virus genotype 1b infected in human Huh-7.5.1 cells assessed as reduction in virus production at 10 uM incubated for 72 hrs by Nano-Glo luciferase assay", "assay_type": "functional, organism-based"}, "Huh7.5.1": {"tested_on": "Huh7.5.1", "assay": "Cytotoxicity in human Huh-7.5.1 cells assessed as reduction in cell viability at 10 uM incubated for 72 hrs by CellTiter-Glo luminescent cell viability assay", "assay_type": "toxicity, cell-based", "settings": "huh7.5.1, 72 h"}, "Hepatovirus A [2]": {"tested_on": "Hepatovirus A", "assay": "Antiviral activity against hepatitis A virus genotype 1b infected in human Huh-7.5.1 cells assessed as reduction in virus production incubated for 72 hrs by Nano-Glo luciferase assay", "assay_type": "functional, organism-based", "settings": "for Activity: DDE = dose-dependent effect; for EC50: Huh-7.5.1, 72 h"}, "[3]": {"assay": "Cytotoxicity in human Huh-7.5.1 cells assessed as reduction in cell viability incubated for 72 hrs by CellTiter-Glo luminescent cell viability assay", "assay_type": "toxicity, cell-based, Huh7.5.1"}, "[4]": {"assay": "Selectivity index, ratio of CC50 for Cytotoxicity in human Huh-7.5.1 cells to EC50 for Antiviral activity against hepatitis A virus genotype 1b infected in human Huh-7.5.1 cells", "assay_type": "toxicity, cell-based", "settings": "read-out: Ratio CC50/EC50"}, "Hepatovirus A [5]": {"tested_on": "Hepatovirus A", "assay": "Antiviral activity against hepatitis A virus HM175/18f infected in human Huh-7.5.1 cells assessed as reduction in HM175 production at 2 to 50 uM incubated for 72 hrs by RT-qPCR method", "assay_type": "functional, organism-based", "settings": "dose 2-50 µM, DDE = dose-dependent effect"}, "Hepatovirus A [6]": {"tested_on": "Hepatovirus A", "assay": "Antiviral activity against hepatitis A virus genotype 1b infected in human Huh-7.5.1 cells assessed as reduction in virus production at 10 uM incubated for 72 hrs after 6 hrs HAV/NLuc infection by Nano-Glo luciferase assay", "assay_type": "functional, organism-based"}, "Hepatovirus A [7]": {"tested_on": "Hepatovirus A", "assay": "Antiviral activity against hepatitis A virus HM175 infected in human Huh-7.5.1 cells assessed as reduction in HAV2c Protein expression at 10 uM incubated for 48 hrs by immunofluorescence assay", "assay_type": "functional, organism-based"}, "Hepatovirus A [8]": {"tested_on": "Hepatovirus A", "assay": "Antiviral activity against hepatitis A virus infected in human Huh-7.5.1 cells assessed as reduction in viral RNA replication at 2 to 50 uM incubated for 72 hrs by luciferase reporter dependent subgenomic replicon assay", "assay_type": "functional", "settings": "dose 2-50 µM"}, "Hepatovirus A [9]": {"tested_on": "Hepatovirus A", "assay": "Antiviral activity against hepatitis A virus KRM031 infected in human Huh-7.5.1 cells assessed as reduction in cytoplasmic viral RNA level at 5 to 20 uM incubated for 72 hrs dosed after infection for 6 hrs by RT-qPCR method", "assay_type": "functional, organism-based", "settings": "KRM031, Huh-7.5.1"}, "Hepatovirus A [10]": {"tested_on": "Hepatovirus A", "assay": "Antiviral activity against hepatitis A virus TICM005 infected in human Huh-7.5.1 cells assessed as reduction in cytoplasmic viral RNA level at 5 to 20 uM incubated for 72 hrs dosed after infection for 6 hrs by RT-qPCR method", "assay_type": "functional, organism-based", "settings": "TICM005, Huh-7.5.1"}}, "note": "The source made the active and inactive calls. The rule behind the calls is not given here."}
{"smiles": "COc1cc(OCC(=O)N/N=C/c2ccc(Cl)cc2)cc2c1CCC(c1cc(OC)c(OC)c(OC)c1)O2", "note": "(stereo unspecified)", "values": [{"measurement": "Activity", "setting": "Hepatovirus A [1]", "result": "Active"}, {"measurement": "Activity", "setting": "Huh7.5.1", "result": "Non-Toxic"}, {"measurement": "Activity", "setting": "Hepatovirus A [2]", "result": "Dde"}, {"measurement": "EC50", "setting": "Hepatovirus A [2]", "result": 5.5, "unit": "µM"}, {"measurement": "CC50 at 72 h", "setting": "[3]", "result": 89.8, "unit": "µM"}, {"measurement": "selectivity ratio", "setting": "[4]", "result": 16.3}, {"measurement": "inhibition", "setting": "Hepatovirus A [5]", "result": "Dde"}, {"measurement": "inhibition", "setting": "Hepatovirus A [6]", "result": "Active"}, {"measurement": "Activity", "setting": "Hepatovirus A [7]", "result": "Active"}, {"measurement": "inhibition (INH)", "setting": "Hepatovirus A [8]", "result": 98.3, "unit": "%"}, {"measurement": "EC50", "setting": "Hepatovirus A [9]", "result": 13.1, "unit": "µM"}, {"measurement": "EC50", "setting": "Hepatovirus A [10]", "result": 14.2, "unit": "µM"}]}
{"smiles": "COc1cc(OCC(=O)N/N=C/c2ccc(C)cc2)cc2c1CCC(c1cc(OC)c(OC)c(OC)c1)O2", "note": "(stereo unspecified)", "values": [{"measurement": "Activity", "setting": "Hepatovirus A [1]", "result": "Active"}, {"measurement": "Activity", "setting": "Huh7.5.1", "result": "Non-Toxic"}, {"measurement": "Activity", "setting": "Hepatovirus A [2]", "result": "Dde"}, {"measurement": "EC50", "setting": "Hepatovirus A [2]", "result": 9.3, "unit": "µM"}, {"measurement": "CC50 at 72 h", "setting": "[3]", "result": 103, "unit": "µM"}, {"measurement": "selectivity ratio", "setting": "[4]", "result": 11.1}, {"measurement": "inhibition", "setting": "Hepatovirus A [5]", "result": "Dde"}, {"measurement": "inhibition", "setting": "Hepatovirus A [6]", "result": "Active"}, {"measurement": "Activity", "setting": "Hepatovirus A [7]", "result": "Active"}, {"measurement": "inhibition (INH)", "setting": "Hepatovirus A [8]", "result": 56.4, "unit": "%"}, {"measurement": "EC50", "setting": "Hepatovirus A [9]", "result": "> 20", "unit": "µM"}, {"measurement": "EC50", "setting": "Hepatovirus A [10]", "result": "> 20", "unit": "µM"}]}
{"smiles": "COc1ccc(/C=N/NC(=O)COc2cc(OC)c3c(c2)OC(c2cc(OC)c(OC)c(OC)c2)CC3)cc1", "note": "(stereo unspecified)", "values": [{"measurement": "Activity", "setting": "Hepatovirus A [1]", "result": "Active"}, {"measurement": "Activity", "setting": "Huh7.5.1", "result": "Toxic"}]}
{"smiles": "COc1cc(OCC(=O)N/N=C(\\C)c2ccccc2O)cc2c1CCC(c1cc(OC)c(OC)c(OC)c1)O2", "note": "(stereo unspecified)", "values": [{"measurement": "Activity", "setting": "Hepatovirus A [1]", "result": "Active"}, {"measurement": "Activity", "setting": "Huh7.5.1", "result": "Toxic"}]}
{"smiles": "COc1cc(OCC(=O)N/N=C/c2ccc(Cl)c(Cl)c2)cc2c1CCC(c1cc(OC)c(OC)c(OC)c1)O2", "note": "(stereo unspecified)", "values": [{"measurement": "Activity", "setting": "Hepatovirus A [1]", "result": "Active"}, {"measurement": "Activity", "setting": "Huh7.5.1", "result": "Toxic"}]}
{"smiles": "COc1cc(OCC(=O)N/N=C/c2ccc(Cl)c(O)c2)cc2c1CCC(c1cc(OC)c(OC)c(OC)c1)O2", "note": "(stereo unspecified)", "values": [{"measurement": "Activity", "setting": "Hepatovirus A [1]", "result": "Active"}, {"measurement": "Activity", "setting": "Huh7.5.1", "result": "Toxic"}]}
{"smiles": "COc1cc(OCC(=O)N/N=C/c2ccc(Br)cc2)cc2c1CCC(c1cc(OC)c(OC)c(OC)c1)O2", "note": "(stereo unspecified)", "values": [{"measurement": "Activity", "setting": "Hepatovirus A [1]", "result": "Active"}, {"measurement": "Activity", "setting": "Huh7.5.1", "result": "Non-Toxic"}, {"measurement": "Activity", "setting": "Hepatovirus A [2]", "result": "Dde"}, {"measurement": "EC50", "setting": "Hepatovirus A [2]", "result": 6.1, "unit": "µM"}, {"measurement": "CC50 at 72 h", "setting": "[3]", "result": 152, "unit": "µM"}, {"measurement": "selectivity ratio", "setting": "[4]", "result": 25}, {"measurement": "inhibition", "setting": "Hepatovirus A [5]", "result": "Dde"}, {"measurement": "inhibition", "setting": "Hepatovirus A [6]", "result": "Active"}, {"measurement": "Activity", "setting": "Hepatovirus A [7]", "result": "Active"}, {"measurement": "inhibition (INH)", "setting": "Hepatovirus A [8]", "result": 93, "unit": "%"}, {"measurement": "EC50", "setting": "Hepatovirus A [9]", "result": "> 20", "unit": "µM"}, {"measurement": "EC50", "setting": "Hepatovirus A [10]", "result": "> 20", "unit": "µM"}]}
{"smiles": "COc1cc(OCC(=O)N/N=C/c2ccc(Cl)s2)cc2c1CCC(c1cc(OC)c(OC)c(OC)c1)O2", "note": "(stereo unspecified)", "values": [{"measurement": "Activity", "setting": "Hepatovirus A [1]", "result": "Active"}, {"measurement": "Activity", "setting": "Huh7.5.1", "result": "Non-Toxic"}, {"measurement": "Activity", "setting": "Hepatovirus A [2]", "result": "Dde"}, {"measurement": "EC50", "setting": "Hepatovirus A [2]", "result": 5.3, "unit": "µM"}, {"measurement": "CC50 at 72 h", "setting": "[3]", "result": 83.3, "unit": "µM"}, {"measurement": "selectivity ratio", "setting": "[4]", "result": 15.7}, {"measurement": "inhibition", "setting": "Hepatovirus A [5]", "result": "Dde"}, {"measurement": "inhibition", "setting": "Hepatovirus A [6]", "result": "Active"}, {"measurement": "Activity", "setting": "Hepatovirus A [7]", "result": "Active"}, {"measurement": "inhibition (INH)", "setting": "Hepatovirus A [8]", "result": 98.1, "unit": "%"}, {"measurement": "EC50", "setting": "Hepatovirus A [9]", "result": 8.5, "unit": "µM"}, {"measurement": "EC50", "setting": "Hepatovirus A [10]", "result": 11.7, "unit": "µM"}]}
